The subject of test [1] is RKO p27 or p21 induced (arrested) colon adenocarcinoma cells. In words: Alamar Blue cell viability assay, RKO p27 or p21 induced (arrested). Format: cell-based. The settings on record: Homo sapiens, RKOp27, Table B2, cells arrested by Ponasterone A, 72 hours, read-out: −log EC50 RKO p27 or p21 induced (arrested) (converted). The procedure, abridged: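 RKOp21 or RKOp27 subclones in DMEM/10% FCS with 10 μM Ponasterone A to induce p21/p27 arrest, seeded 24 h before compound; triplicate 72 h exposure at 37 °C. Alamar Blue fluorescence (544/590 nm) as % of untreated (1% DMSO) cells; EC50 from dose-response curves, reported as −log EC50 (mol/l).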

Test [2] relates to RKO p27 or p21 uninduced (proliferating) colon adenocarcinoma cells. The test is described as follows: Alamar Blue cell viability assay, RKO p27 or p21 uninduced (proliferating). Format: cell-based. The conditions noted are these: Homo sapiens, RKOp27, 72 h, Table B2, anti-proliferative/cytotoxic activity, read-out: −log EC50 RKO p27 or p21 uninduced (proliferating) (converted). In short, it runs like this:
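RKO p21 or p27 subclones grown without Ponasterone A, i.e. proliferating, exposed 24 h after seeding to semi-log compound dilutions in DMEM/10% FCS (1% DMSO controls) for 72 h at 37° C. Alamar Blue fluorescence (544/590 nm) read relative to untreated cells; EC50 from dose-response curves, given as −log EC50 (mol/l).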

With `C[C@@]12Cc3c([nH]c4ccc(Cl)cc34)[C@@H](c3cccc(O)c3)N1C(=O)N(CCN1CCCCCC1)C2=O` (racemic) [Example 104, (3aSR,10RS)-2-(2-Azepan-1-yl-ethyl)-6-chloro-10-(3-hydroxy-phenyl)-3a-methyl-3a,4,9,10-tetrahydro-2,9,10a-triaza-cyclopenta[b]fluorene-1,3-dione], the 50% effective concentration (EC50) is ≥ 3.16 µM in test [1] and ≤ 0.0398 µM in test [2].
For `Cn1ccc(NCCN2C(=O)N3[C@H](c4cccc(O)c4)c4[nH]c5ccc(Cl)cc5c4C[C@@]3(C)C2=O)n1` (racemic) [Example 125, (3aSR,10RS)-6-Chloro-10-(3-hydroyx-phenyl)-3a-methyl-2-[2-(1-methyl-1H-pyrazol-3-ylamino)-ethyl]-3a,4,9,10-tetrahydro-2,9,10a-triaza-cyclopenta[b]fluorene-1,3-dione] the same measures were ≥ 0.316 µM and 0.0398 to 0.251 µM.
With `COCCNCCN1C(=O)N2[C@H](c3cccc(O)c3)c3[nH]c4ccc(Cl)cc4c3C[C@@]2(C)C1=O` (racemic) [Example 128, (3aSR,10RS)-6-Chloro-10-(3-hydroxy-phenyl)-2-[2-(2-methoxy-ethylamino)-ethyl]-3a-methyl-3a,4,9,10-tetrahydro-2,9,10a-triaza-cyclopenta[b]fluorene-1,3-dione], the EC50 was ≥ 0.316 µM in test [1] and ≤ 0.0398 µM in test [2].
For `COc1ccc2[nH]c3c(c2c1)C[C@@]1(C)C(=O)N(CCCN2CC=CC2)C(=O)N1[C@@H]3c1cccc(O)c1` (racemic) [Example 149, (3aSR,10RS)-2-[3-(2,5-Dihydro-pyrrol-1-yl)-propyl]-10-(3-hydroxy-phenyl)-6-methoxy-3a-methyl-3a,4,9,10-tetrahydro-2,9,10a-triaza-cyclopenta[b]fluorene-1,3-dione], the results for the concentration for a half-maximal effect (EC50) in test [1] and in test [2] were ≥ 0.316 µM and ≤ 0.0398 µM, respectively.
Consider `C#CCNCCN1C(=O)N2[C@H](c3cccc(O)c3)c3[nH]c4ccc(Cl)cc4c3C[C@@]2(C)C1=O` (racemic) [Example 127, (3aSR,10RS)-6-Chloro-10-(3-hydroxy-phenyl)-3a-methyl-2-(2-prop-2-ynylamino-ethyl)-3a,4,9,10-tetrahydro-2,9,10a-triaza-cyclopenta[b]fluorene-1,3-dione], for which the results for the EC50 in test [1] and in test [2] were ≥ 0.316 µM and ≤ 0.0398 µM, respectively.
For `COCCNCCN1C(=O)N2[C@H](c3cccc(O)c3)c3[nH]c4ccc(OC)cc4c3C[C@@]2(C)C1=O` (racemic) [Example 83, (3aSR,10RS)-10-(3-Hydroxy-phenyl)-6-methoxy-2-[2-(2-methoxy-ethylamino)-ethyl]-3a-methyl-3a,4,9,10-tetrahydro-2,9,10a-triaza-cyclopenta[b]fluorene-1,3-dione] the same measures were ≥ 3.16 µM and ≤ 0.0398 µM.
With `COc1ccc2[nH]c3c(c2c1)C[C@@]1(C)C(=O)N(CCCN2CCOCC2)C(=O)N1[C@@H]3c1cccc(O)c1` (racemic) [Example 148, (3aSR,10RS)-10-(3-Hydroxy-phenyl)-6-methoxy-3a-methyl-2-(3-morpholin-4-yl-propyl)-3a,4,9,10-tetrahydro-2,9,10a-triaza-cyclopenta[b]fluorene-1,3-dione], the EC50 was ≥ 0.316 µM in test [1] and ≤ 0.0398 µM in test [2].
In the case of `CCN(C)CCCN1C(=O)N2[C@H](c3cccc(O)c3)c3[nH]c4ccc(OC)cc4c3C[C@@]2(C)C1=O` (racemic) [Example 77, (3aSR,10RS)-2-[3-(Ethyl-methyl-amino)-propyl]-10-(3-hydroxy-phenyl)-6-methoxy-3a-methyl-3a,4,9,10-tetrahydro-2,9,10a-triaza-cyclopenta[b]fluorene-1,3-dione], the 50% effective concentration (EC50) in test [1] is ≥ 3.16 µM; in test [2] it was ≤ 0.0398 µM.
For the compound `COc1ccc2[nH]c3c(c2c1)C[C@@]1(C)C(=O)N(CCN(C)CCO)C(=O)N1[C@@H]3c1cccc(O)c1` (racemic) [Example 118, (3aSR,10RS)-2-{2-[(2-Hydroxy-ethyl)-methyl-amino]-ethyl}-10-(3-hydroxy-phenyl)-6-methoxy-3a-methyl-3a,4,9,10-tetrahydro-2,9,10a-triaza-cyclopenta[b]fluorene-1,3-dione], the EC50 in test [1] was ≥ 0.316 µM; in test [2] it was ≤ 0.0398 µM.
With `C#CCN(C)CCCN1C(=O)N2[C@H](c3cccc(O)c3)c3[nH]c4ccc(OC)cc4c3C[C@@]2(C)C1=O` (racemic) [Example 144], the results for the EC50 in test [1] and in test [2] were ≥ 0.316 µM and 0.0398 to 0.251 µM, respectively.
For the compound `COc1ccc2[nH]c3c(c2c1)C[C@@]1(C)C(=O)N(CCCN2CC=CCC2)C(=O)N1[C@@H]3c1cccc(O)c1` (racemic) [Example 106, (3aSR,10RS)-2-[3-(3,6-Dihydro-2H-pyridin-1-yl)-propyl]-10-(3-hydroxy-phenyl)-6-methoxy-3a-methyl-3a,4,9,10-tetrahydro-2,9,10a-triaza-cyclopenta[b]fluorene-1,3-dione], the EC50 in test [1] is ≥ 0.316 µM; in test [2], ≤ 0.0398 µM.
For `COc1ccc2[nH]c3c(c2c1)C[C@@]1(C)C(=O)N(CCCN2CCC2)C(=O)N1[C@@H]3c1cccc(O)c1` (racemic) [Example 87, (3aSR,10RS)-2-(3-Azetidin-1-yl-propyl)-10-(3-hydroxy-phenyl)-6-methoxy-3a-methyl-3a,4,9,10-tetrahydro-2,9,10a-triaza-cyclopenta[b]fluorene-1,3-dione] the same measures were ≥ 3.16 µM and ≤ 0.0398 µM.
Turning to `CN1CCN(CCN2C(=O)N3[C@H](c4cccc(O)c4)c4[nH]c5ccc(Cl)cc5c4C[C@@]3(C)C2=O)CC1` (racemic) [Example 111, (3aSR,10RS)-6-Chloro-10-(3-hydroxy-phenyl)-3a-methyl-2-[2-(4-methyl-piperazin-1-yl)-ethyl]-3a,4,9,10-tetrahydro-2,9,10a-triaza-cyclopenta[b]fluorene-1,3-dione], the figures for the EC50 in test [1] and in test [2] were ≥ 0.316 µM and ≤ 0.0398 µM, respectively.
For `CN(CCO)CCN1C(=O)N2[C@H](c3cccc(O)c3)c3[nH]c4ccc(Cl)cc4c3C[C@@]2(C)C1=O` (racemic) [Example 126, (3aSR,10RS)-6-Chloro-2-{2-[(2-hydroxy-ethyl)-methyl-amino]-ethyl}-10-(3-hydroxy-phenyl)-3a-methyl-3a,4,9,10-tetrahydro-2,9,10a-triaza-cyclopenta[b]fluorene-1,3-dione], the 50% effective concentration (EC50) in test [1] is ≥ 0.316 µM; in test [2], ≤ 0.0398 µM.
For the compound `CCN(CC)CCN1C(=O)N2[C@H](c3cccc(O)c3)c3[nH]c4ccc(Cl)cc4c3C[C@@]2(C)C1=O` (racemic) [Example 110, (3aSR,10RS)-6-Chloro-2-(2-diethylamino-ethyl)-10-(3-hydroxy-phenyl)-3a-methyl-3a,4,9,10-tetrahydro-2,9,10a-triaza-cyclopenta[b]fluorene-1,3-dione], the EC50 is ≥ 0.316 µM in test [1] and ≤ 0.0398 µM in test [2].
In the case of `COc1ccc2[nH]c3c(c2c1)C[C@@]1(C)C(=O)N(CCCNCC(C)C)C(=O)N1[C@@H]3c1cccc(O)c1` (racemic) [Example 92, (3aSR,10RS)-10-(3-Hydroxy-phenyl)-2-(3-isobutylamino-propyl)-6-methoxy-3a-methyl-3a,4,9,10-tetrahydro-2,9,10a-triaza-cyclopenta[b]fluorene-1,3-dione], the figures for the EC50 in test [1] and in test [2] were ≥ 3.16 µM and ≤ 0.0398 µM, respectively.
With `CC(C)CNCCN1C(=O)N2[C@H](c3cccc(O)c3)c3[nH]c4ccc(Cl)cc4c3C[C@@]2(C)C1=O` (racemic) [Example 99, (3aSR,10RS)-6-Chloro-10-(3-hydroxy-phenyl)-2-(2-isobutylamino-ethyl)-3a-methyl-3a,4,9,10-tetrahydro-2,9,10a-triaza-cyclopenta[b]fluorene-1,3-dione], the values for the concentration giving a half-maximal response (EC50) in test [1] and in test [2] were ≥ 3.16 µM and ≤ 0.0398 µM, respectively.
Consider `C[C@@]12Cc3c([nH]c4ccc(Cl)cc34)[C@@H](c3cccc(O)c3)N1C(=O)N(CCN1CC=CC1)C2=O` (racemic) [Example 109, (3aSR,10RS)-6-Chloro-2-[2-(2,5-dihydro-pyrrol-1-yl)-ethyl]-10-(3-hydroxy-phenyl)-3a-methyl-3a,4,9,10-tetrahydro-2,9,10a-triaza-cyclopenta[b]fluorene-1,3-dione], for which the half-maximal effective concentration (EC50) was ≥ 0.316 µM in test [1] and ≤ 0.0398 µM in test [2].
Turning to `C[C@@]12Cc3c([nH]c4ccc(Cl)cc34)[C@@H](c3cccc(O)c3)N1C(=O)N(CCNC1CCC1)C2=O` (racemic) [Example 103, (3aSR,10RS)-6-Chloro-2-(2-cyclobutylamino-ethyl)-10-(3-hydroxy-phenyl)-3a-methyl-3a,4,9,10-tetrahydro-2,9,10a-triaza-cyclopenta[b]fluorene-1,3-dione], the figures for the concentration giving a half-maximal response (EC50) in test [1] and in test [2] were ≥ 3.16 µM and ≤ 0.0398 µM, respectively.
For `COc1ccc2[nH]c3c(c2c1)C[C@@]1(C)C(=O)N(CCCN2CCCCC2)C(=O)N1[C@@H]3c1cccc(O)c1` (racemic) [Example 105, (3aSR,10RS)-10-(3-Hydroxy-phenyl)-6-methoxy-3a-methyl-2-(3-piperidin-1-yl-propyl)-3a,4,9,10-tetrahydro-2,9,10a-triaza-cyclopenta[b]fluorene-1,3-dione], in that order: ≥ 0.316 µM and ≤ 0.0398 µM.
Consider `COc1ccc2[nH]c3c(c2c1)C[C@@]1(C)C(=O)N(CCN(C)C(C)C)C(=O)N1[C@@H]3c1cccc(O)c1` (racemic) [Example 70, (3aSR,10RS)-10-(3-Hydroxy-phenyl)-2-[2-(isopropyl-methyl-amino)-ethyl]-6-methoxy-3a-methyl-3a,4,9,10-tetrahydro-2,9,10a-triaza-cyclopenta[b]fluorene-1,3-dione], for which the concentration for a half-maximal effect (EC50) in test [1] was ≥ 3.16 µM; in test [2], ≤ 0.0398 µM.

For the origin of these results see patent publication US8530493B2, “Indolopyridines as Eg5 kinesin modulators” (4SC AG, priority 2006, dated 2013).
